Assay results from patent publication US10745400B2, “Inhibition of BMP signaling, compounds, compositions and uses thereof” (Vanderbilt University, priority 2018, dated 2020).
Positions count from the first letter of the chain named. Where two headings read alike, the source gives them in different places.

Key:
ALK2 (Q207D) = biological target: T1, ALK2 (Q207D) (Homo sapiens, UniProt Q04771, Q207D); assay: Kinase assay (33P-ATP filter-binding), ALK2 Q207D; format: biochemical; conditions: Q207D mutant, 20 mM; read-out: Kinase Selectivity ALK2 (Q207D, 20 mM)
T1 sequence (Q04771 21-509 Q207D): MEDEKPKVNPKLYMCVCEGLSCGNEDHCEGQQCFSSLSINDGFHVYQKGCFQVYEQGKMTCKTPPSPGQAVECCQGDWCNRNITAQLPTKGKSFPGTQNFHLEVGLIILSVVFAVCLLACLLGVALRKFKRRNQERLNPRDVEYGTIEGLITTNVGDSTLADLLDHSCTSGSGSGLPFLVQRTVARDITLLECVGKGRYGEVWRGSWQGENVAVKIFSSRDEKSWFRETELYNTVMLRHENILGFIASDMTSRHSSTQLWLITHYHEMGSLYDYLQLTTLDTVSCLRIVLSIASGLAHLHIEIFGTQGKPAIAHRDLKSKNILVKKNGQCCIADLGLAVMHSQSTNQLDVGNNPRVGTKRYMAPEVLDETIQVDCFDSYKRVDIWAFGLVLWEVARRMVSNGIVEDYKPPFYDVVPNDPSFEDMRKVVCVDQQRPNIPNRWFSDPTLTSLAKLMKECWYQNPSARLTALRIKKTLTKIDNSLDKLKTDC
Protocol: (§1) The kinase assays were carried out briefly as follows. Substrate was prepared in Base Reaction Buffer (20 mM Hepes (pH 7.5), 10 mM MgCl2, 1 mM EGTA, 0.02% Brij35, 0.02 mg/ml BSA, 0.1 mM Na3VO4, 2 mM DTT, 1% DMSO). The indicated kinases was delivered into the substrate solution and allowed to gently mix. Next, the specific compound was delivered in DMSO into the kinase mixture by Acoustic technology (Echo550; nanoliter range), and allowed to incubate for 20 minutes at room temperature. Next, ^33P-ATP was delivered into the reaction mixture to initiate the reaction and allowed to incubate at room temperature. After 2 hours, the reactions were spotted onto P81 ion exchange paper and the kinase activity is detected by the filter-binding method.

ALK3/BMPR1A = ALK3/BMPR1A (Homo sapiens, UniProt P36894); assay: Kinase assay (33P-ATP filter-binding), ALK3; format: biochemical
Protocol: as §1

ALK2/ACVR1 = biological target: T2, ALK2/ACVR1 (Homo sapiens, UniProt Q04771); assay: Kinase assay (33P-ATP filter-binding), ALK2; format: biochemical
T2 sequence (Q04771 21-509): T1 sequence (Q04771 21-509 Q207D) with D187Q
Protocol: as §1

ALK1/ACVRL1 = ALK1/ACVRL1 (Homo sapiens, UniProt P37023); assay: Kinase assay (33P-ATP filter-binding), ALK1; format: biochemical
Protocol: as §1

ALK2 (R206H) = biological target: T3, ALK2 (R206H) (Homo sapiens, UniProt Q04771, R206H); assay: Kinase assay (33P-ATP filter-binding), ALK2 R206H; format: biochemical; conditions: R206H mutant, 20 mM; read-out: Kinase Selectivity ALK2 (R206H, 20 mM)
T3 sequence (Q04771 21-509 R206H): T1 sequence (Q04771 21-509 Q207D) with R186H, D187Q
Protocol: as §1

[1] = Intrinsic clearance, mouse; format: in vitro ADME; conditions: mouse
Protein binding, mouse = format: in vitro ADME
[2] = Intrinsic clearance, human; format: in vitro ADME; conditions: human
Protein binding, human = format: in vitro ADME
[3] = 1 mM, read-out: Kinase Selectivity ALK3/BMPR1A (1 mM)
[4] = 20 mM, read-out: Kinase Selectivity ALK2/ACVR1 (20 mM)
[5] = read-out: Kinase Selectivity ALK1/ACVRL1
[6] = CL-Hep, value in parentheses, read-out: Intrinsic Clearance Mouse (CL-Hep)
[7] = read-out: Intrinsic Clearance Mouse
[8] = CL-Hep, value in parentheses, read-out: Intrinsic Clearance Human (CL-Hep)
[9] = read-out: Intrinsic Clearance Human

ALK1/ACVRL1, sequence (P37023 22-503): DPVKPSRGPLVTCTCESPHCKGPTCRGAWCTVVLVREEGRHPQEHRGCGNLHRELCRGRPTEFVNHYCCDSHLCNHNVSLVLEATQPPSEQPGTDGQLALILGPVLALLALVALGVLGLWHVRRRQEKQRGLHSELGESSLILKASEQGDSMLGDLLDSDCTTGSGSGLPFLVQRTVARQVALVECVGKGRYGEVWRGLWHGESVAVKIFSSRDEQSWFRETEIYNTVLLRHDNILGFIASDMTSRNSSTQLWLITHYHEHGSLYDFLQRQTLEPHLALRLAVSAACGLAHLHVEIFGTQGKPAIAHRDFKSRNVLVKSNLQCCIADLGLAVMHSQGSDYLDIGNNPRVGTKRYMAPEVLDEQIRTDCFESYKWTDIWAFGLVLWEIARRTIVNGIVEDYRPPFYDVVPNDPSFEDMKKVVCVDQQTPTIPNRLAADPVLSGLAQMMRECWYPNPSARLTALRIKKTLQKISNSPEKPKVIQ
ALK3/BMPR1A, sequence (P36894 24-532): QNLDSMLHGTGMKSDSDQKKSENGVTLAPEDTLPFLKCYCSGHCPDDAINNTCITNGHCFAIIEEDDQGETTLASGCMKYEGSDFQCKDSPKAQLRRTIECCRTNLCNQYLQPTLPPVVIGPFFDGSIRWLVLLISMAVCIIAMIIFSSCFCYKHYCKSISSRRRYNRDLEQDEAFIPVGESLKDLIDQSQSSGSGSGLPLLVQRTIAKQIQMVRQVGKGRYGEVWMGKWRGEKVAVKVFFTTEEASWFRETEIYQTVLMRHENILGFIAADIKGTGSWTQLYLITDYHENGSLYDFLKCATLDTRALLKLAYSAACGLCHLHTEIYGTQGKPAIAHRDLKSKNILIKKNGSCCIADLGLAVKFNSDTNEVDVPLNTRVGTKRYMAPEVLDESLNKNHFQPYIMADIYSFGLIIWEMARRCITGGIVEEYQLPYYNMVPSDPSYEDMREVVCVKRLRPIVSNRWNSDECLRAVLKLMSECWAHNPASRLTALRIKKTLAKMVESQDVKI

Row | IC50 (ALK2 (Q207D)) [nM] | IC50 (ALK3/BMPR1A; [3]) [nM] | IC50 (ALK2/ACVR1; [4]) [nM] | IC50 (ALK1/ACVRL1; [5]) [nM] | IC50 (ALK2 (R206H)) [nM] | CLint scaled [1, 6] [mL/min/kg] | CLint scaled [1, 7] [mL/min/kg] | Protein Binding (% Free) Mouse (Protein binding, mouse) [% Free] | CLint scaled [2, 8] [mL/min/kg] | CLint scaled [2, 9] [mL/min/kg] | Protein Binding (% Free) Human (Protein binding, human) [% Free] | SMILES | IC50 (ALK3/BMPR1A) [nM] | IC50 (ALK2/ACVR1) [nM] | IC50 (ALK1/ACVRL1; Kinase Selectivity ALK1/ACVRL1) [nM]
1 | 68.1 | 28.5 | 54.2 | 880 | 60.9 | – | – | – | – | – | – | Cc1cc(-c2cnc3cc(-c4ccc(C5C[C@@H](C)N[C@@H](C)C5)cc4)ccn23)c2cc(F)cc(F)c2n1 (stereo partly drawn) [Compound 1] | – | – | –
2 | 24 | 2.52 | 29 | 386 | 25.5 | – | – | – | – | – | – | Cc1cc(-c2cnc3cc(-c4ccc(N5CCNC6(CCC6)C5)cc4)ccn23)c2cc(F)cc(F)c2n1 [Compound 4] | – | – | –
3 | 745 | 434 | 770 | 5950 | 1070 | – | – | – | – | – | – | Cc1cc(-c2cnc3cc(-c4ccc(N5CCC6(CCNC6)CC5)cc4)ccn23)c2cc(F)cc(F)c2n1 [Compound 7] | – | – | –
4 | > 50000 | 43700 | > 50000 | > 50000 | > 50000 | – | – | – | – | – | – | Cc1cc(-c2cnc3cc(-c4ccc(N5CCC6(CCC6)C5)cc4)ccn23)c2cc(F)cc(F)c2n1 [Compound 8] | – | – | –
5 | > 50000 | 40900 | > 50000 | > 50000 | > 50000 | – | – | – | – | – | – | Cc1cc(-c2cnc3cc(-c4ccc(N5CCC6(CCC6)CC5)cc4)ccn23)c2cc(F)cc(F)c2n1 [Compound 9] | – | – | –
6 | < 5.1 | < 5.1 | < 5.1 | 16 | < 5.1 | < 32.9 | < 49.5 | 2.3 | 16.6 | 97.2 | 1.85 | Cc1cc(-c2cnc3cc(-c4ccc(C5COCCCN5)cc4)ccn23)c2cc(F)cc(F)c2n1 (stereo not drawn) [Compound 13] | – | – | –
7 | < 5.1 | < 5.1 | < 5.1 | 14.1 | < 5.1 | 53.3 | 131 | 3.15 | 15.9 | 77.2 | 3.74 | Cc1cc(-c2cnc3cc(-c4ccc(C5COC(C)CN5)cc4)ccn23)c2cc(F)cc(F)c2n1 (stereo not drawn) [Compound 19] | – | – | –
8 | < 5.1 | < 5.1 | < 5.1 | 23 | < 5.1 | 50.2 | 114 | 1.36 | 17.1 | 117 | 4.01 | Cc1cc(-c2cnc3cc(-c4ccc(C5COCC(C)N5)cc4)ccn23)c2cc(F)ccc2n1 (stereo not drawn) [Compound 20] | – | – | –

Second part, the compound before the results:

Row | SMILES | IC50 (ALK2 (Q207D)) [nM] | IC50 (ALK3/BMPR1A; [3]) [nM] | IC50 (ALK2/ACVR1; [4]) [nM] | IC50 (ALK1/ACVRL1; [5]) [nM] | IC50 (ALK2 (R206H)) [nM] | CLint scaled [1, 6] [mL/min/kg] | CLint scaled [1, 7] [mL/min/kg] | Protein Binding (% Free) Mouse (Protein binding, mouse) [% Free] | CLint scaled [2, 8] [mL/min/kg] | CLint scaled [2, 9] [mL/min/kg] | Protein Binding (% Free) Human (Protein binding, human) [% Free] | IC50 (ALK3/BMPR1A) [nM] | IC50 (ALK2/ACVR1) [nM] | IC50 (ALK1/ACVRL1; Kinase Selectivity ALK1/ACVRL1) [nM]
9 | Cc1cc(-c2cnc3cc(-c4ccc(N5CCCC6(CCCN6)C5)cc4)ccn23)c2cc(F)cc(F)c2n1 (stereo not drawn) [Compound 2] | 114 | 45 | 147 | 936 | 128 | – | – | – | – | – | – | – | – | –
10 | Cc1cc(-c2cnc3cc(-c4ccc(N5CCC6(CCCNC6)CC5)cc4)ccn23)c2cc(F)cc(F)c2n1 [Compound 3] | 999 | 332 | 1090 | 10300 | 1120 | – | – | – | – | – | – | – | – | –
11 | Cc1cc(-c2cnc3cc(-c4ccc(N5CCC6(CCNCC6)C5)cc4)ccn23)c2cc(F)cc(F)c2n1 [Compound 5] | 1740 | 1330 | 2370 | 35300 | 2510 | – | – | – | – | – | – | – | – | –
12 | Cc1cc(-c2cnc3cc(-c4ccc(N5CCC6(CCCNC6)C5)cc4)ccn23)c2cc(F)cc(F)c2n1 (stereo not drawn) [Compound 6] | 200 | 19.9 | 171 | 3460 | 218 | – | – | – | – | – | – | – | – | –
13 | Cc1cc(-c2cnc3cc(-c4ccc(C5COCCCN5)cc4)ccn23)c2cc(F)ccc2n1 (stereo not drawn) [Compound 10] | < 5.1 | < 5.1 | < 5.1 | < 5.1 | < 5.1 | 47.6 | 101 | 1.91 | 17.4 | 139 | 2.39 | – | – | –
14 | Cc1cc(-c2cnc3cc(-c4ccc(C5COCCN5)cc4)ccn23)c2cc(F)ccc2n1 (stereo not drawn) [Compound 11] | – | < 5.1 | – | 23.5 | – | – | – | 3.23 | 17.4 | – | 1.52 | – | – | –
15 | Cc1cc(-c2cnc3cc(-c4ccc(C5COC(C)CN5)cc4)ccn23)c2ccccc2n1 (stereo not drawn) [Compound 14] | < 5.1 | < 5.1 | < 5.1 | < 5.1 | < 5.1 | 50.3 | 114 | 1.6 | 16.5 | 93 | 0.76 | – | – | –
16 | Cc1cc(-c2cnc3cc(-c4ccc(C5COC(C)CN5)cc4)ccn23)c2cc(F)ccc2n1 (stereo not drawn) [Compound 15] | < 5.1 | < 5.1 | < 5.1 | 34.1 | < 5.1 | 38.1 | 66.3 | 1.01 | 15.7 | 74 | 1.26 | – | – | –
17 | Cc1cc(-c2cnc3cc(-c4ccc(C5COCCN5)cc4)ccn23)c2ccccc2n1 (stereo not drawn) [Compound 21] | – | < 5.1 | – | < 5.1 | – | – | – | 6.24 | 17.5 | – | 3.05 | – | – | –
18 | Cc1cc(-c2cnc3cc(N4CC5(CCNCC5)C4)ccn23)c2cc(F)cc(F)c2n1 [Compound 24] | 129 | 5.2 | 57.8 | 1250 | 58.3 | < 32.9 | < 49.5 | 1.08 | 14 | 46.3 | 0.75 | – | – | –
19 | c1cc(-c2cnc3cc(-c4ccc(C5CNCCN5)cc4)ccn23)ccn1 (stereo not drawn) [Compound 30] | 35 | 55.1 | 68.8 | 447 | 96.7 | – | – | – | – | – | – | – | – | –
20 | c1ncc2scc(-c3cnc4cc(-c5ccc(C6CNCCN6)cc5)ccn34)c2n1 (stereo not drawn) [Compound 35] | 65.8 | 9450 | 157 | 14200 | 214 | – | – | – | – | – | – | – | – | –
21 | O=S(=O)(F)Oc1ccc(-c2cnc3cc(-c4ccc(N5CCOCC5)cc4)ccn23)c2ccccc12 [Compound 38] | 10300 | – | – | – | 15000 | – | – | – | – | – | – | 23100 | > 30000 | > 30000
